Test results taken from ChEMBL document CHEMBL3120109, “Discovery of Thienoimidazole-Based HCV NS5A Genotype 1a and 1b Inhibitors” (ACS Med Chem Lett, 2014).

What was measured:
[1] = Half life in rat at 3 mg/kg, po; type: ADME, organism-based; parameters: dose 3 mg/kg, route oral; conditions: in vivo
[2] = AUC (0 to 8 hrs) in rat at 3 mg/kg, po; type: ADME, organism-based; parameters: time < 8 hr, dose 3 mg/kg, route oral; conditions: plasma
[3] = Clearance in rat at 3 mg/kg, iv; type: ADME, organism-based; parameters: dose 3 mg/kg, route intravenous; conditions: in vivo
[4] = Cytotoxicity against human HuhET cells by [3H]thymidine incorporation assay; type: cell-based
[5] = Volume of distribution at steady state in rat at 3 mg/kg, iv; type: ADME, organism-based; parameters: dose 3 mg/kg, route intravenous; conditions: in vivo, read-out: Vdss
Hepatitis C virus [6] = experiment: Antiviral activity against Hepatitis C virus genotype 1b infected in human Huh-5.2 cells assessed as decrease in HCV replicon RNA replication after 4 days by luciferase assay; type: functional, organism-based, Hepacivirus hominis; conditions: Huh-5-2, 96 h
[7] = Half life in rat at 3 mg/kg, iv; type: ADME, organism-based; parameters: dose 3 mg/kg, route intravenous; conditions: in vivo
[8] = Oral bioavailability in rat at 3 mg/kg; type: ADME, organism-based; conditions: in vivo
Hepatitis C virus [9] = experiment: Antiviral activity against Hepatitis C virus genotype 1a infected in W11.8 cells assessed as decrease in NS5A expression in replicon cell after 4 days by luminescence based ELISA; type: functional, organism-based, Hepacivirus hominis; conditions: subtype 1a, W11.8, 96 h
[10] = Ratio of EC50 for Hepatitis C virus genotype 1a infected in W11.8 cells to EC50 for Hepatitis C virus genotype 1b infected in human Huh-5.2 cells; type: functional
Hepatitis C virus [11] = experiment: Ratio of EC50 for Hepatitis C virus genotype 1a harboring NS5A Q30R mutant gene to EC50 for Hepatitis C virus genotype 1a harboring wild type NS5A; type: functional, Hepacivirus hominis, subtype 1a
Hepatitis C virus [12] = experiment: Ratio of EC50 for Hepatitis C virus genotype 1a harboring NS5A M28T mutant gene to EC50 for Hepatitis C virus genotype 1a harboring wild type NS5A; type: functional, Hepacivirus hominis, subtype 1a
[13] = Metabolic stability in human liver microsomes assessed as intact compound level at 5 uM after 1 hr; type: ADME; conditions: read-out: Stability
Hepatitis C virus [14] = experiment: Ratio of EC50 for Hepatitis C virus genotype 1b harboring NS5A Y93H mutant gene to EC50 for Hepatitis C virus genotype 1b harboring wild type NS5A; type: functional, Hepacivirus hominis
Hepatitis C virus [15] = experiment: Ratio of EC50 for Hepatitis C virus genotype 1a harboring NS5A Y93C mutant gene to EC50 for Hepatitis C virus genotype 1a harboring wild type NS5A; type: functional, Hepacivirus hominis, subtype 1a
[16] = Metabolic stability in rat liver microsomes assessed as intact compound level at 5 uM after 1 hr; type: ADME; conditions: read-out: Stability
[17] = Efflux ratio of permeability from basolateral to apical over apical to basolateral side in human Caco2 cells; type: ADME, cell-based; conditions: Caco-2
Hepatitis C virus [18] = experiment: Ratio of EC50 for Hepatitis C virus genotype 1a harboring NS5A Y93H mutant gene to EC50 for Hepatitis C virus genotype 1a harboring wild type NS5A; type: functional, Hepacivirus hominis, subtype 1a

SMILES | EC50 (Hepatitis C virus [6]) [nM] | EC50 (Hepatitis C virus [9]) [nM] | CC50 [4] [nM] | Ratio EC50 [10] | other results
COC(=O)N[C@H](C(=O)N1C[C@@H](C)C[C@H]1c1ncc(-c2cc3sc(-c4ccc(-c5cc6[nH]c([C@@H]7C[C@H](C)CN7C(=O)[C@@H](NC(=O)OC)C(C)C)nc6s5)cc4)cc3s2)[nH]1)C(C)C | 0.014 | 0.054 | > 20000 | 3.8 | half-life [1]: 10.8 h; AUC(0-t) at 8 h [2]: 460 ng·h/mL; clearance [3]: 5.1 mL/min/kg; Vd [5]: 2 L/kg; half-life [7]: 5.1 h; bioavailability [8]: 6.7%
COC(=O)N[C@H](C(=O)N1C[C@@H](C)C[C@H]1c1ncc(-c2csc3ccc(-c4ccc(-c5cc6[nH]c([C@@H]7C[C@H](C)CN7C(=O)[C@@H](NC(=O)OC)C(C)C)nc6s5)cc4)cc23)[nH]1)C(C)C | 6.8 | > 100 | 16400 |  | 
COC(=O)N[C@H](C(=O)N1C[C@@H](C)C[C@H]1c1ncc(C#Cc2ccc(-c3cc4[nH]c([C@@H]5C[C@H](C)CN5C(=O)[C@@H](NC(=O)OC)C(C)C)nc4s3)cc2)[nH]1)C(C)C | 0.24 | 12 | > 20000 | 50 | 
COC(=O)N[C@H](C(=O)N1C[C@@H](C)C[C@H]1c1ncc(-c2ccc(-c3ccc(-c4cc5[nH]c([C@@H]6C[C@H](C)CN6C(=O)[C@@H](NC(=O)OC)C(C)C)nc5s4)cc3)c(F)c2)[nH]1)C(C)C | 0.013 | 0.235 | 3100 | 18 | 
COC(=O)N[C@H](C(=O)N1C[C@@H](C)C[C@H]1c1ncc(-c2ccc(-c3ccc(-c4cc5[nH]c([C@@H]6C[C@H](C)CN6C(=O)[C@@H](NC(=O)OC)C(C)C)nc5s4)cc3)cc2)[nH]1)C(C)C | 0.008 | 0.017 | > 20000 | 2 | half-life [1]: 8.3 h; Ratio EC50 (Hepatitis C virus [11]): >500; AUC(0-t) at 8 h [2]: 1540 ng·h/mL; Ratio EC50 (Hepatitis C virus [12]): >500; remaining at 1 h, 5 µM [13]: 100%; clearance [3]: 5.3 mL/min/kg; Ratio EC50 (Hepatitis C virus [14]): 900; Ratio EC50 (Hepatitis C virus [15]): >15000; Vd [5]: 2.4 L/kg; remaining at 1 h, 5 µM [16]: 91%; half-life [7]: 6.1 h; bioavailability [8]: 25.6%; efflux ratio [17]: 2; Ratio EC50 (Hepatitis C virus [18]): >15000
COC(=O)N[C@H](C(=O)N1C[C@@H](C)C[C@H]1c1nc2cc(-c3ccc(-c4ccc(-c5cc6[nH]c([C@@H]7C[C@H](C)CN7C(=O)[C@@H](NC(=O)OC)C(C)C)nc6s5)cc4)cc3)ccc2[nH]1)C(C)C | 0.024 | 0.622 | > 20000 |  | 
COC(=O)N[C@H](C(=O)N1CCC[C@H]1c1ncc(-c2ccc(-c3ccc(-c4cnc([C@@H]5CCCN5C(=O)[C@@H](NC(=O)OC)C(C)C)[nH]4)cc3)cc2)[nH]1)C(C)C [DACLATASVIR] |  | 0.05 |  |  | 

Further molecules by falling EC50 (Hepatitis C virus [6]), results first:

EC50 (Hepatitis C virus [6]) [nM] | EC50 (Hepatitis C virus [9]) [nM] | SMILES | CC50 [4] [nM] | Ratio EC50 [10] | other results
0.01 | 1.12 | COC(=O)N[C@H](C(=O)N1C[C@@H](C)C[C@H]1c1ncc(C#Cc2ccc(-c3ccc(-c4cc5[nH]c([C@@H]6C[C@H](C)CN6C(=O)[C@@H](NC(=O)OC)C(C)C)nc5s4)cc3)cc2)[nH]1)C(C)C | > 20000 | 112 | 
0.007 | 0.034 | COC(=O)N[C@H](C(=O)N1C[C@@H](C)C[C@H]1c1ncc(-c2ccc(-c3ccc(-c4cc5[nH]c([C@@H]6C[C@H](C)CN6C(=O)[C@@H](NC(=O)OC)C(C)C)nc5s4)cc3)s2)[nH]1)C(C)C | 18300 | 5 | 
0.007 | 7.5 | COC(=O)N[C@H](C(=O)N1C[C@@H](C)C[C@H]1c1ncc(-c2cccc(-c3ccc(-c4cc5[nH]c([C@@H]6C[C@H](C)CN6C(=O)[C@@H](NC(=O)OC)C(C)C)nc5s4)cc3)c2)[nH]1)C(C)C | > 20000 | 1071 | half-life [1]: 5.1 h; AUC(0-t) at 8 h [2]: 490 ng·h/mL; clearance [3]: 13.5 mL/min/kg; Vd [5]: 4.8 L/kg; half-life [7]: 5.1 h; bioavailability [8]: 16%
0.005 | 0.114 | COC(=O)N[C@H](C(=O)N1C[C@@H](C)C[C@H]1c1ncc(-c2ccc(-c3ccc(-c4cc5[nH]c([C@@H]6C[C@H](C)CN6C(=O)[C@@H](NC(=O)OC)C(C)C)nc5s4)cc3)cc2C)[nH]1)C(C)C | > 20000 | 23 | 
0.005 | 0.619 | COC(=O)N[C@H](C(=O)N1C[C@@H](C)C[C@H]1c1nc2cc(-c3ccc(-c4cc5[nH]c([C@@H]6C[C@H](C)CN6C(=O)[C@@H](NC(=O)OC)C(C)C)nc5s4)cc3)ccc2[nH]1)C(C)C | > 20000 |  | 
0.004 | 0.038 | COC(=O)N[C@H](C(=O)N1C[C@@H](C)C[C@H]1c1nc2cc(/C=C/c3ccc(-c4cc5[nH]c([C@@H]6C[C@H](C)CN6C(=O)[C@@H](NC(=O)OC)C(C)C)nc5s4)cc3)ccc2[nH]1)C(C)C | > 20000 |  | half-life [1]: 5 h; AUC(0-t) at 8 h [2]: 820 ng·h/mL; clearance [3]: 6 mL/min/kg; Vd [5]: 2.7 L/kg; half-life [7]: 6.6 h; bioavailability [8]: 14.1%
0.004 | 0.177 | COC(=O)N[C@H](C(=O)N1C[C@@H](C)C[C@H]1c1nc2cc(C#Cc3ccc(-c4cc5[nH]c([C@@H]6C[C@H](C)CN6C(=O)[C@@H](NC(=O)OC)C(C)C)nc5s4)cc3)ccc2[nH]1)C(C)C | > 20000 |  | 
0.003 | 0.071 | COC(=O)N[C@H](C(=O)N1C[C@@H](C)C[C@H]1c1ncc(-c2ccc(-c3ccc(-c4cc5[nH]c([C@@H]6C[C@H](C)CN6C(=O)[C@@H](NC(=O)OC)C(C)C)nc5s4)cc3)cc2F)[nH]1)C(C)C | > 20000 |  | 
0.002 | 0.062 | COC(=O)N[C@H](C(=O)N1C[C@@H](C)C[C@H]1c1ncc(-c2ccc(-c3ccc(-c4cc5[nH]c([C@@H]6C[C@H](C)CN6C(=O)[C@@H](NC(=O)OC)C(C)C)nc5s4)cc3)c(C)c2)[nH]1)C(C)C | > 20000 | 31 | 
